Laboratory results as given in paper PMC9823097, “Dysregulation of PRMT5 in chronic lymphocytic leukemia promotes progression with high risk of Richter’s transformation” (Nature Communications, 2023).

Test system: HG3 cells
Assay: Cell growth curves over 12 days, HG3
Format: cell-based
Experimental: Live cells/mL were counted on days 3, 6, 10, and 12. […] The split factor was calculated at indicated time points by dividing the counted cells/mL by 3E5. Cell growth was extrapolated over time by multiplying the subsequent cell count by the previous split factor. Cell growth is plotted as fold change relative to DMSO-treated cells.

## O=C(NC[C@H](O)CN1CCc2ccccc2C1)c1cc(NC2COC2)ncn1 [EPZ015666]
HG3, 1 nM, day 0
  Rep 1 Live Cells [Fold Change]: 1 Fold Change
  Rep 2 Live Cells [Fold Change]: 1 Fold Change
HG3, 1 nM, day 3
  Rep 1 Live Cells [Fold Change]: 5.41 Fold Change
  Rep 2 Live Cells [Fold Change]: 6.183 Fold Change
HG3, 1 nM, day 6
  Rep 1 Live Cells [Fold Change]: 37.87 Fold Change
  Rep 2 Live Cells [Fold Change]: 41.0161 Fold Change
HG3, 1 nM, day 10
  Rep 1 Live Cells [Fold Change]: 230.663 Fold Change
  Rep 2 Live Cells [Fold Change]: 364.018 Fold Change
HG3, 1 nM, day 12
  Rep 1 Live Cells [Fold Change]: 1359.37 Fold Change
  Rep 2 Live Cells [Fold Change]: 2238.71 Fold Change
HG3, 10 nM, day 0
  Rep 1 Live Cells [Fold Change]: 1 Fold Change
  Rep 2 Live Cells [Fold Change]: 1 Fold Change
HG3, 10 nM, day 3
  Rep 1 Live Cells [Fold Change]: 6.05 Fold Change
  Rep 2 Live Cells [Fold Change]: 5.567 Fold Change
HG3, 10 nM, day 6
  Rep 1 Live Cells [Fold Change]: 44.77 Fold Change
  Rep 2 Live Cells [Fold Change]: 36.2761 Fold Change
HG3, 10 nM, day 10
  Rep 1 Live Cells [Fold Change]: 317.46 Fold Change
  Rep 2 Live Cells [Fold Change]: 308.347 Fold Change
HG3, 10 nM, day 12
  Rep 1 Live Cells [Fold Change]: 1720.21 Fold Change
  Rep 2 Live Cells [Fold Change]: 1505.76 Fold Change
HG3, 100 nM, day 0
  Rep 1 Live Cells [Fold Change]: 1 Fold Change
  Rep 2 Live Cells [Fold Change]: 1 Fold Change
  Rep 3 Live Cells [Fold Change]: 1 Fold Change
  Rep 4 Live Cells [Fold Change]: 1 Fold Change
HG3, 100 nM, day 3
  Rep 1 Live Cells [Fold Change]: 5.29 Fold Change
  Rep 2 Live Cells [Fold Change]: 5.42 Fold Change
  Rep 3 Live Cells [Fold Change]: 7.7 Fold Change
  Rep 4 Live Cells [Fold Change]: 8.317 Fold Change
HG3, 100 nM, day 6
  Rep 1 Live Cells [Fold Change]: 34.2087 Fold Change
  Rep 2 Live Cells [Fold Change]: 34.688 Fold Change
  Rep 3 Live Cells [Fold Change]: 44.4033 Fold Change
  Rep 4 Live Cells [Fold Change]: 58.2167 Fold Change
HG3, 100 nM, day 10
  Rep 1 Live Cells [Fold Change]: 327.781 Fold Change
  Rep 2 Live Cells [Fold Change]: 304.216 Fold Change
  Rep 3 Live Cells [Fold Change]: 521.739 Fold Change
  Rep 4 Live Cells [Fold Change]: 589.444 Fold Change
HG3, 100 nM, day 12
  Rep 1 Live Cells [Fold Change]: 1552.37 Fold Change
  Rep 2 Live Cells [Fold Change]: 1763.75 Fold Change
  Rep 3 Live Cells [Fold Change]: 1182.61 Fold Change
  Rep 4 Live Cells [Fold Change]: 2564.08 Fold Change
HG3, 1 µM, day 0
  Rep 1 Live Cells [Fold Change]: 1 Fold Change
  Rep 2 Live Cells [Fold Change]: 1 Fold Change
  Rep 3 Live Cells [Fold Change]: 1 Fold Change
  Rep 4 Live Cells [Fold Change]: 1 Fold Change
HG3, 1 µM, day 3
  Rep 1 Live Cells [Fold Change]: 4.22 Fold Change
  Rep 2 Live Cells [Fold Change]: 4.83 Fold Change
  Rep 3 Live Cells [Fold Change]: 7.35 Fold Change
  Rep 4 Live Cells [Fold Change]: 8.167 Fold Change
HG3, 1 µM, day 6
  Rep 1 Live Cells [Fold Change]: 27.219 Fold Change
  Rep 2 Live Cells [Fold Change]: 35.0658 Fold Change
  Rep 3 Live Cells [Fold Change]: 34.79 Fold Change
  Rep 4 Live Cells [Fold Change]: 45.4611 Fold Change
HG3, 1 µM, day 10
  Rep 1 Live Cells [Fold Change]: 173.707 Fold Change
  Rep 2 Live Cells [Fold Change]: 145.701 Fold Change
  Rep 3 Live Cells [Fold Change]: 233.093 Fold Change
  Rep 4 Live Cells [Fold Change]: 381.873 Fold Change
HG3, 1 µM, day 12
  Rep 1 Live Cells [Fold Change]: 608.205 Fold Change
  Rep 2 Live Cells [Fold Change]: 463.207 Fold Change
  Rep 3 Live Cells [Fold Change]: 924.602 Fold Change
  Rep 4 Live Cells [Fold Change]: 1559.32 Fold Change
HG3, continuous exposure over 12 days
  effect on growth potential (cell growth): No changes in growth potential
